Measured values taken from patent publication EP2019099A1, “Dpp-IV inhibitors” (Santhera Pharmaceuticals (Schweiz) AG, priority 2007, dated 2009).

Target: T1, DPP-IV (Homo sapiens, UniProt P27487)
T1 construct: Soluble human DPP-IV lacking the transmembrane anchor (Gly31-Pro766); Pre-Pro-alpha-mating factor leader (secretion fusion) (N, cleaved yes); made in house
Test: Inhibition of DPP-IV peptidase activity, continuous fluorimetric assay (Gly-Pro-AMC cleavage)
Assay type: biochemical, human and porcine
Settings: 50 pM DPP-IV, 16 µM substrate Gly-Pro-AMC, pH 7.4, 25 °C, values grouped in 2 classes
Experimental: Inhibition of DPP-IV peptidase activity was monitored with a continuous fluorimetric assay. This assay is based on the cleavage of the substrate Gly-Pro-AMC (Bachem) by DPP-IV, releasing free AMC. The assay is carried out in 96-well microtiterplates. In a total volume of 100 µL, compounds are preincubated with 50 pM DPP-IV employing a buffer containing 10mM Hepes, 150mM NaCl, 0.005% Tween 20 (pH 7.4). The reaction is started by the addition of 16 µM substrate and the fluorescence of liberated AMC is detected for 10 minutes at 25 °C with a fluorescence reader (BMG-Fluostar; BMG-Technologies) using an excitation wavelength of 370 nm and an emission wavelength of 450 nm. The final concentration of DMSO is 1 %. The inhibitory potential of the compounds were determined.
Soluble human DPP-IV lacking the transmembrane anchor (Gly31-Pro766) was expressed in a recombinant YEAST-strain as Pre-Pro-alpha-mating fusion. The secreted product (rhuDPP-IV-Gly31-Pro766) was purified from fermentation broth (>90% purity).
In table 1 are listed the IC50 values for inhibition of DPP-IV peptidase activity determined in assays as described above. The IC50 values were grouped in 2 classes: a ≤ 100 nM; b ≥101 nM and ≤ 1000 nM.

T1 sequence (P27487 31-766): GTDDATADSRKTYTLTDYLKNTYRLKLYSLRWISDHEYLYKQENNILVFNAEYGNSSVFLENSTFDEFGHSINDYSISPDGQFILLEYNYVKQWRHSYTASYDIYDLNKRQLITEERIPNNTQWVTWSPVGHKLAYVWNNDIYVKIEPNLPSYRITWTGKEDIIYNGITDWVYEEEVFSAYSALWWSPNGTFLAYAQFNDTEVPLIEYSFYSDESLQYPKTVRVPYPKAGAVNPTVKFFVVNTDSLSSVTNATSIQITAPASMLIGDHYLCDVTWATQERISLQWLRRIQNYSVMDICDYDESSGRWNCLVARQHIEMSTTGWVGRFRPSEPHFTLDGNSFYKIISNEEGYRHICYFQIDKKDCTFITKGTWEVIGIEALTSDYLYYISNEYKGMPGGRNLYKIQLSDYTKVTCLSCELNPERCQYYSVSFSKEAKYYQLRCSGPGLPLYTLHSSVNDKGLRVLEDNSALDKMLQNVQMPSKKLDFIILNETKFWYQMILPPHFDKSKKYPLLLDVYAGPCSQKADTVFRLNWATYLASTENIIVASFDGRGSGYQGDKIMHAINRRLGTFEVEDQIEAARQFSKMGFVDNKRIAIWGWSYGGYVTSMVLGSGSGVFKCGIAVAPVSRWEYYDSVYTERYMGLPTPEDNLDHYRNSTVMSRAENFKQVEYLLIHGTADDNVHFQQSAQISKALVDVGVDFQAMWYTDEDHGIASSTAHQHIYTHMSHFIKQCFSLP

| SMILES | IC50 |
| --- | --- |
| Cc1nc(C(F)(F)F)ncc1C(=O)N1CCC([C@H](N)Cc2cc(F)c(F)cc2F)CC1 [Example 2, {4-[(R)-1-Amino-2-(2,4,5-trifluoro-phenyl)-ethyl]-piperidin-1-yl}-(4-methyl-2-trifluoromethylpyrimidin-5-yl)-methanone] | ≤ 100 nM |
| N[C@H](Cc1cc(F)c(F)cc1F)C1CCN(C(=O)c2cnc(C(F)(F)F)nc2C2CC2)CC1 [Example 4] | ≤ 100 nM |
| CC(C)c1ncc(C(=O)N2CCC([C@H](N)Cc3cc(F)c(F)cc3F)CC2)c(C2CC2)n1 [Example 5] | ≤ 100 nM |
| Cc1ncc(C(=O)N2CCC([C@H](N)Cc3cc(F)c(F)cc3F)CC2)c(C(F)(F)F)n1 [Example 6] | ≤ 100 nM |
| N[C@H](Cc1cc(F)c(F)cc1F)C1CCN(C(=O)c2cnc(-c3ccccn3)nc2C(F)(F)F)CC1 [Example 8] | ≤ 100 nM |

More lines, now with the values ahead:

| IC50 | SMILES |
| --- | --- |
| ≤ 100 nM | Cc1ncc(C(=O)N2CCC([C@H](N)Cc3cc(F)c(F)cc3F)CC2)c(C)n1 [Example 1, {4-[(R)-1-Amino-2-(2,4,5-trifluoro-phenyl)-ethyl]-piperidin-1-yl}-(2,4-dimethyl-pyrimidin-5-yl)-methanone] |
| ≤ 100 nM | Cc1nc(N)ncc1C(=O)N1CCC([C@H](N)Cc2cc(F)c(F)cc2F)CC1 [Example 7] |
| ≤ 100 nM | Cc1nc(-c2ccccc2)ncc1C(=O)N1CCC([C@H](N)Cc2cc(F)c(F)cc2F)CC1 [Example 9] |
